Measured values published in patent publication US12440475B2, “Hodgkin lymphoma therapy” (priority 2016, dated 2025).

Experiments:
[1] = test system: Hodgkin lymphoma cell lines (KMH2, HDML2, L540, L1236 and L426); test: IC50 comparison of bendamustine, vorinostat and EDO-S101, five cell lines; format: cell-based, human; settings: Homo sapiens; range over all cell lines tested, including L1236-R
Protocol: (§1) • (a) Five Hodgkin lymphoma cell lines (KMH2, HDML2, L540, L1236 and L426) were cultured separately in the presence of bendamustine, vorinostat and EDO-S101 dissolved in DMSO at 37° C. L1236-derived Hodgkin lymphoma cell lines were selected as they have an acquired stable resistance to bendamustine (R100) or an ability to display continuous growth upon extended exposure to sub-lethal concentrations of bendamustine (R25, R50 and R75). A detailed description of the L1236-R Hodgkin lymphoma cell lines is disclosed in De Filippi et al, ASH 2015, Abstract. #2479. In these tests, the L1236-100R bendamustine resistant strain was used. […] Control cells were cultured in the same final concentration of DMSO. The number of viable cells was assessed at 24, 48 and 72 hours through a Countess™ automated cell counter (Invitrogen), each experiment being repeated three times and the results given being the mean of the three results±SD.

L1236-R100 = test: Viable cell count and IC50, bendamustine-resistant cell line; format: cell-based, human; settings: Homo sapiens; R100 cell line
Protocol: as §1

[2] = test system: relapsed-refractory Hodgkin lymphoma; settings: cited from earlier work
R100 = test: Combination with Brentuximab Vedotin, % survival, R100; format: cell-based, human; settings: Brentuximab Vedotin 0.39 μg/ml (typically 10-fold lower than IC50) with EDO-S101 1.56 μM
Protocol: 1.56 μM of EDO-S101 was administered to two Hodgkin lymphoma cell lines, the bendamustine naïve cell line L1236 and the bendamustine resistant cell line R100. In a second experiment, Brentuximab Vedotin was administered at a concentration of 3.12 μg/ml to the L1236 cell line and at a concentration of 0.39 μg/ml to the R100 cell line. Finally, in a third experiment EDO-S101 and Brentuximab Vedotin were administered in combination to each of the two cell lines at the same concentrations that they were administered in the monotherapy experiments.

Compound | IC50 [1] | IC50 (L1236-R100) | patients resistant to bendamustine [2] | cytotoxic effect in combination with EDO-S101 (R100)
Cn1c(CCCC(=O)O)nc2cc(N(CCCl)CCCl)ccc21 [bendamustine, reference compound] | 11 to 17 µM | ~140 µM | about 40% | 
Brentuximab Vedotin |  |  |  | considerable cytotoxic effect
